From patent US7642269B2, “Pyrrolo[3,2-B]pyridine derivatives and processes for the preparation thereof” (Yuhan Corporation, priority 2005, dated 2010)

Columns and labels:
[1] = molecular target: T1, hog gastric H^+/K^+-ATPase (Sus scrofa, UniProt P19156); test: Reversible inhibition of hog gastric H^+/K^+-ATPase (Washout method); format: biochemical; conditions: for inhibition of H^+/K^+-ATPase activity after washout: activity completely recovered to non-treated group level; for inhibition of H^+/K^+-ATPase activity before washout: at the concentration giving 50% inhibition of the proton pump
T1 construct: from tissue; host or cells: hog fundic mucosa (gastric vesicles / microsomes, lyophilized)
T1 sequence (P19156 2-1034 limits assumed): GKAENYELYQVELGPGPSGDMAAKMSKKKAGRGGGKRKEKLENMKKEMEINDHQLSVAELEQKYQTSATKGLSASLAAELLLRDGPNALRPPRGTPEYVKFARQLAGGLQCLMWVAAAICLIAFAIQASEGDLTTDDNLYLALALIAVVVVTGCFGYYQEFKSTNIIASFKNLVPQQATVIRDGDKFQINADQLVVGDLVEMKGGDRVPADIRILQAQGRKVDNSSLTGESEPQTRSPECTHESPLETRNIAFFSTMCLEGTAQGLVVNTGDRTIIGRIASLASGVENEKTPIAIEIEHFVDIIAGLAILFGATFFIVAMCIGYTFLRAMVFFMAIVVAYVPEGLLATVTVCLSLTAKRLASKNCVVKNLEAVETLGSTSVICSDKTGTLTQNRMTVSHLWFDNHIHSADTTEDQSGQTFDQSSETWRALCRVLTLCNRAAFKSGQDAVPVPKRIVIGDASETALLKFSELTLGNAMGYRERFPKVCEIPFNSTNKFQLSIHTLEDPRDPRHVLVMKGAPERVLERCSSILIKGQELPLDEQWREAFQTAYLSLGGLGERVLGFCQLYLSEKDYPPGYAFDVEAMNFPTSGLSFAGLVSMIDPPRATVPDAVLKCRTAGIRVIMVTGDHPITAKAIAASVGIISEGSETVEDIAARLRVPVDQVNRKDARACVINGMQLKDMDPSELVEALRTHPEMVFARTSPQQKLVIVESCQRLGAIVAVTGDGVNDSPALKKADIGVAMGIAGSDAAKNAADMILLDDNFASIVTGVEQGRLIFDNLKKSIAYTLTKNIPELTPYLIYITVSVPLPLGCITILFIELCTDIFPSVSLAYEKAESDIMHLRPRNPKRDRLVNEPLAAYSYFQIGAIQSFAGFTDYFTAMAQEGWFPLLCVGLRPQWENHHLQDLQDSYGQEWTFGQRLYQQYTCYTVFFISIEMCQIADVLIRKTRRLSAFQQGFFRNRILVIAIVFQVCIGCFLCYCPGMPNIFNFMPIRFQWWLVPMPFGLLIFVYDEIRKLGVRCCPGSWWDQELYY
T1 sequence (P18434 whole entry partner): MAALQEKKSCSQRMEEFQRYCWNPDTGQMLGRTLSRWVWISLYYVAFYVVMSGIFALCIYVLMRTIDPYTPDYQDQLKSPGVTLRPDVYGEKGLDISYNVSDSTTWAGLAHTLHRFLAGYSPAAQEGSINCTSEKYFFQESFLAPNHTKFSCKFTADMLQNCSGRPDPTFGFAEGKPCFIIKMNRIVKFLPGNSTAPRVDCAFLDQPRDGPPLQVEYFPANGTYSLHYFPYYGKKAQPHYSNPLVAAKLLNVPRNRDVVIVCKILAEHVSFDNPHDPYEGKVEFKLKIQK
Protocol: 3-1. […] Gastric vesicles were prepared from hog fundic mucosa using the method of Saccomani et al. (Saccomani […], Lewin M and Sachs G, Characterization of gastric mucosal membranes. IX. Fraction and purification of K-ATPase-containing vesicles by zonal centrifugation and free-flow electrophoresis technique. Biochem. Biophy. Acta. (BBA)-Biomembranes 465, 311-330, 1977.). This material was lyophilized and stored at -70° C. The protein content of gastric vesicles was determined by the Bradford method using bovine serum albumin as a standard (Bradford M M, A rapid and sensitive method for the quantitation of microgram quantities of protein utilizing the principle of protein-dye binding. Anal Biochem. 72, 248-254, 1976). 3-2. Determination of reversible inhibition of hog gastric H^+/K^+-ATPase Activity of H^+/K^+-ATPase in hog microsome (lyophilized vesicle) was measured by the inorganic phosphate released from ATP using an one-step colorimetric detection method at the concentration at which the test compounds have 50% inhibition of the proton pump (Chan […], and Junger K D, A direct colorimetric assay for Ca^2+-stimulated ATPase activity. Anal Biochem, 157, 375-380, 1986). […] Differentiation of their inhibition characteristics from those of omeprazole. Eur. J. Pharmacol., 187, 455-67, 1990). Lyophilized vesicle in the solution of 5 mM Pipes/Tris buffer was pre-incubated in the presence of the test compounds (the compounds of Examples 50, 64, and 94) at the concentration at which it has 50% inhibition of the proton pump. The previous reaction buffer was added with 2 mM MgCl2, 50 mM KCl, 5 uM Valinomycin, and 0.5 mM ATP and then incubated for 30 minutes at 37° C. The H^+/K^+-ATPase activity was measured using the calorimetric detection method and then the test sample was centrifuged at 100,000×g for 1 hr. The vesicles are present in the form of pellets in the test sample. The supernatant thereof was replaced with the same buffer not having the test compound. […] The H^+/K^+-ATPase activity was also measured using the calorimetric detection method. The H^+/K^+-ATPase activity before washout and after washout in the test sample was analyzed, in comparison with those in the non-treated group.

[2] = tested on: basal gastric acid secretion; test: Inhibitory effects on basal gastric acid secretion in pylorus-ligated rats (Shay's rat model); format: in vivo, Sprague Dawley (SD) rats; conditions: oral, one hour before pylorus ligation, total acid output 5 hours after ligation, male SD rats
Protocol: Inhibitory effects of the compounds of the present invention on basal gastric acid secretion were performed according to Shay's rat model (Shay, H., et al., 1945, gastroenterology, 5, 43-61). Male Sprague Dawley (SD) rats (200±10 g body weight) were divided into 3 groups (n=5) and fasted for 24 hours with free access to water. Control group was orally administered with 0.5% methylcellulose alone and the other groups were orally administered with test compounds suspended in 0.5% methyl-cellulose solution at doses of 1, 3 and 10 mg/kg/5 ml one hour before pylorus ligation. Under ether anesthesia, the abdomens of the rats were incised and then the pylorus was ligated. 5 hours after ligation, the animals were sacrificed, and the gastric contents were collected. The collected contents were centrifuged at 1,000×g for 10 minutes to obtain the gastric juice. Total acid output was measured by 0.01N NaOH volume (ueq/ml) for automatic titration of the gastric juice to pH 7.0 and the ED50s of test compounds were calculated using the Litchfield-Wilcoxon method. % inhibitory activity was calculated from the following equation and the results are shown in Table 2. % inhibitory activity of test compound=(total acid output of control group−total acid output of the group treated with test compounds)/total acid output of control group X 100

[3] = molecular target: T2, H^+/K^+-ATPase (Sus scrofa, UniProt P19156); test: Inhibitory effects on proton pump (H^+/K^+-ATPase) activity, hog gastric vesicles; format: biochemical; conditions: K^+ stimulated H^+/K^+-ATPase activity, hog gastric vesicle, Pi measured at 620 nm
T2 construct: used as an enzyme source of the in vitro enzyme reaction assay of proton pump; from tissue; host or cells: hog gastric fundic mucosa (membrane vesicles, lyophilized)
T2 sequence (P19156 2-1034 limits assumed): as the sequence (P19156 2-1034 limits assumed) above
T2 sequence (P18434 whole entry partner): as the sequence (P18434 whole entry partner) above
Summary of the method: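 Lyophilized hog gastric vesicles in Pipes/Tris pH 6.1 were preincubated 5 min with compounds (1% DMSO), then run with ATP for 30 min at 37 °C. Released phosphate was measured by malachite green at 620 nm; K^+-stimulated activity taken as the difference between reactions with and without K^+.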

SMILES | inhibition of H^+/K^+-ATPase activity after washout [1] | inhibition of H^+/K^+-ATPase activity before washout [1] [%] | ED50 [2] [mg/kg] | IC50 [3] [µM]
Cc1c(C)n(Cc2ccccc2)c2c(OCc3ccc(F)cc3)ccnc12.O=S(=O)(O)c1ccccc1 [Example 64, 1-benzyl-7-(4-fluorobenzyloxy)-2,3-dimethyl-1H-pyrrolo[3,2-b]pyridine benzenesulfonate] | did not inhibit | – | – | –
Cc1c(C)n(CC(C)C)c2c(OCc3ccc(F)cc3)ccnc12.Cl [Example 50, 7-(4-fluorobenzyloxy)-1-isobutyl-2,3-dimethyl-1H-pyrrolo[3,2-b]pyridine hydrochloride] | did not inhibit | 50 | 2.4 | 2.44
COC(=O)c1ccc(Cn2c(C)c(C)c3nccc(OCc4ccc(Cl)cc4)c32)cc1.Cl [Example 94, 7-(4-chlorobenzyloxy)-1-(4-methoxycarbonylbenzyl)-2,3-dimethyl-1H-pyrrolo[3,2-b]pyridine hydrochloride] | did not inhibit | 50 | – | 0.89
